We go through 1 molecule from patent US20050038113A1, “Valproic acid and derivatives for the combinatorial therapeutic treatment of human cancers and for the treatment of tumor metastasis and minimal residual disease” (G2M Cancer Drugs AG, priority 2001, published 2005).

The subject of one assay is human endothelial cells. The experiment in a line: endothelial cell activation (anti-angiogenesis). Format: cell-based. The conditions noted are these: VPA and inhibitors of VEGF-R tyrosine kinase activity at the same time, vs individual drugs alone. The procedure:
In addition, the effect of inhibitors of vascular endothelial growth factor receptor (VEGF-R) tyrosine kinase activity was tested on these cells since VEGF-R inhibitors are known to act anti-angiogenic in model systems of tumor-associated endothelial cell activation (e.g. vascular tube formation and/or endothelial cell activation).

In assay [1] the test system is PML-RAR expressing murine hematopoietic progenitors (lin-). In words: myeloid differentiation (Mac-1, FACS) of transduced hematopoietic progenitors. Type of assay: cell-based. The conditions noted are these: VPA 1 mM with cytokines (IL3, IL6, SCF, G-CSF, GM-CSF), 8-10 days.
Procedure: Murine hematopoietic progenitors (lin-) were transduced with a retroviral vector encoding PML-RAR, and GFP as a marker. […] Myeloid differentiation was scored by analyzing the presence of the differentiation marker Mac-1.
Lin- cells were grown for 48 hours in the presence of IL-3 (20 ng/ml), IL-6 (20 ng/ml), SCF (100 ng/ml), and then attached to non-tissue culture treated plates coated with Retronectin (Takara-Shuzo). Cells were then transduced by incubation with the supernatant from Phoenix ecotropic packaging cells (supplemented with fresh serum, and IL-3, IL-6, and SCF as above), transiently transfected with the control retroviral vector PINCO, or PINCO-PML-RAR. After 60 hours, GFP+cells were sorted by FACS, and seeded in methylcellulose plates supplemented as above, plus G-CSF (60 ng/ml) and GM-CSF (20 ng/ml). […] After 8-10 days, cells were analyzed for the presence of the myeloid differentiation marker Mac-1 by FACS.
Differentiation was assessed after 8-10 days by analysis of the myeloid differentiation marker Mac-1.
Assay [2] concerns HCT-15 colon cancer cells. The experiment in a line: SRB-assay, reduction in total cellular biomass. Format: cell-based, human. The procedure:
(§1) The reduction in cellular biomass was measured by SRB-assay. For this assay cells were seeded in 96 well culture dishes at densities between 3000 and 8000 cells per well. […] Cultures were fixed with cold TCA producing a final TCA concentration of 10%. After 1 hour of incubation at 4° C. the cells were washed five times with water and air dried. Fixed cells were stained for 30 minutes with 0,4% (wt/vol) Sulforhodamine B (SRB) dissolved in 1% acetic acid and washed four times with 1% acetic acid to remove unbound dye. After air drying bound dye was solubilized with 10 mM unbuffered Tris base (pH 10,5) for 5 minutes. Optical densities were read on a Titertek Multiskan Plus spectrophotometric plate reader at 550 nm. Six test wells for each dose-response were set in parallel with 12 growth control wells per cell line. A measure of the cell population density at time 0 (To; the time at which the drug was added) was also made from 12 extra reference wells of cells fixed with TCA just prior to drug addition to the test plates. Background OD of complete medium with 5% FBS fixed and stained as described above was also determined in 12 separate wells. From the unprocessed OD data from each microtiter plate the background OD measurements (i.e. OD of complete medium plus stain and OD of cells at T0) were subtracted thus giving the reduction of cellular biomass of the cells.
This was in particular obvious when lower concentrations of 5-FU were used. E.g. […] Thus, this combinatorial activity of these two drugs must be explained via a synergistic activity of this treatment.

Assay [3] relates to COLO320DM colon cancer cells. The experiment in a line: SRB-assay, reduction in total cellular biomass. Type of assay: cell-based, human. The conditions noted are these: 0.75 mM VPA in combination with Camptothecin, 48 hours. The procedure:
as §1
Background: Sulforhodamine B stains cellular protein and so reports cell mass.

The test system of assay [4] is A-549 non-small cell lung cancer cells. In words: SRB-assay, reduction in total cellular biomass. The conditions noted are these: 0.75 mM VPA in combination with Gemcitabine, 48 hours, compared to either alone. Type of assay: cell-based, human. The procedure:
as §1

Assay [5] deals with HCT-116 colon cancer cells. In words: cell counts and propidium iodide cell cycle/apoptosis analysis. Type of assay: cell-based, human. The procedure:
For FIG. 14 cells were seeded in 6 well culture dishes at 100000 cells/well. The day after, they were treated with the indicated drugs (5-FU: 2 μM 5-Fluoruracile; AD: 20 ng/ml adriamycin; IT: 3 μM irinothecan), and then cultured for further 48 hours. Cells were counted at 24 h and 48 h after treatment. All of the assays have been performed in triplicate.
For FIG. 15 cells were seeded in 6 well culture dishes at 100000 cells/well. […] (A), results of triplicate counts of viable cells. (B), cells were stained with propidium iodide after permeabilization and fixation. Results of a cell cycle analysis are presented as percentage (%) of cells in G1, S, G2+M, and sub-G1 (apoptotic cells): all of the assays have been performed in triplicate.
(A), results of triplicate counts of viable cells. (B), cells were stained with propidium iodide after permeabilization and fixation. Results of a cell cycle analysis are presented as percentage (%) of apoptotic cells: all of the assays have been performed in triplicate.
For FIG. 17 cells were seeded in 10 cm culture dishes (1 million cells/dish). […] The day after, they were treated with the following drugs: 5-FU (panel A), AD (B), or IT (C), at the concentrations as indicated for FIG. 14. Cells were analyzed at the day of treatment, 24 h, and 48 h following treatment. Upper panels, results of triplicate counts of viable cells. Lower panels, cells were stained with propidium iodide after permeabilization and fixation. Results of a cell cycle analysis are presented as percentage (%) of apoptotic cells: all of the assays have been performed in triplicate.

For a further assay, the system named is Kasumi-1 cells. In words: viability, cell cycle and myeloid differentiation (morphology, NBT dye reduction). Format: cell-based, human. The procedure:
Cell numbers were evaluated and quantified by direct cell counting (trypan blue dye exclusion method) using a hematocytometer chamber and light microscopy. Morphological examination was performed by Wright-Giemsa stained cytospins; nitroblue tetrazolium (NBT) dye reduction assay, respectively. Each point represents the mean of a set of data determined in triplicate (Example 15).
Cases were classified according to the French-American-British (FAB) classification (Bennett et al., Ann Intern Med 103, 1985). Cytogenetic analysis and RT-PCR tests were performed to rule out the presence of the APL associated fusion genes according to standard methods as described (Mandelli et al., Blood 90, 1997; Mancini et al., Br J Haematol. 91, 1995; Grimwade et al., Blood 90, 1999).

Assay [6] deals with wild-type cells (hematopoietic progenitor cells). The experiment in a line: X-ray sensitivity, colonies in methylcellulose. Type of assay: cell-based, Murine. The conditions noted are these: VPA 1 mM, X-ray 2 Gy. The procedure: Lin- cells were transduced as described for FIG. 11 (see also methods in example 10 for details), and sorted by FACS. 12 hours after sorting, cells were washed with PBS, and then incubated for 8-12 hours in medium with cytokines [data presented in FIG. 12 using IL-3 (20 ng/ml), IL-6 (20 ng/ml), SCF (100 ng/ml), G-CSF (60 ng/ml), GM-CSF (20 ng/ml)] or without cytokines (data not shown). […] Finally, cells were plated in methylcellulose containing medium (StemCell Technologies) in the presence of cytokines (IL3, IL6, SCF, G- and GM-CSF) for 8-10 days. For FIG. 12 uninfected cells (“Control”), or cells expressing GFP alone (“Empty Vector”), or cells expressing GFP and PML-RAR (“PML-RAR”) were used. 8 days after plating in methylcellulose, the total number of colonies was measured.

On to `CCCC(CCC)C(=O)O` [VPA, 2-propylpentanoic acid], for which the “activation of endothelial cells” value in the assay on human endothelial cells is “at least additive effect”. For the same molecule, the “differentiation block imposed by PML-RAR (Mac-1)” value in assay [1] is recorded as “almost completely reverted the differentiation block”. For the same molecule, the “reduction in cellular biomass” value in assay [2] (0.75 mM VPA in combination with 5-FU, 48 hours, compared to VPA or 5-FU alone) was “synergistic reduction in cellular biomass”; in assay [3] it was “clear reduction in cellular biomass”; in assay [4], “clear additive reduction in cellular biomass”. In addition, the “decrease in cellular biomass” value in assay [2] (5-FU lower than 0.5 μM in combination with 0.75 mM VPA, compared to 0.75 mM VPA alone) is on record as “stronger decrease in cellular biomass”. Moreover, the cell growth entry in assay [5] (5-FU 2 μM in combination with VPA 1 mM, 72 hours) was “strong synergistic reduction in cell growth”. Also, the apoptosis entry in assay [5] (5-FU 2 μM in combination with VPA 1 mM, 72 hours, vs 5-FU alone) is listed as “much higher levels of apoptosis”; in assay [5] (VPA 1 mM pre-treatment three days, then VPA+AD (20 ng/ml) up to 48 hours), “dramatic synergistic enhancement of apoptosis”; in assay [5] (VPA 1 mM pre-treatment three days, then VPA+FU (2 μM) up to 48 hours), “dramatic synergistic enhancement of apoptosis”; in assay [5] (VPA 1 mM pre-treatment three days, then VPA+IT (3 μM) up to 48 hours) it was “dramatic synergistic enhancement of apoptosis”; in assay [5] (VPA alone, up to one week) it was “did not induce apoptosis”. Also, the cell number entry in assay [5] (VPA alone, up to one week) is “only minimally affected cell number”. Besides, the myeloid differentiation result in the assay on Kasumi-1 cells (VPA as a single agent) is “partial myeloid differentiation”; in the assay with Kasumi-1 cells (VPA in combination with RA), “complete and thus synergistic myeloid differentiation”. Moreover, in the assay with Kasumi-1 cells (VPA in combination with RA), the “positive cells in the NBT dye reduction assay” value is “up to 65%”. Further, the viability entry in the assay on Kasumi-1 cells (VPA in combination with RA) was “additive effect”. Further, in the assay with Kasumi-1 cells (combination of VPA plus RA compared to VPA or RA alone), the cell cycle analysis result is “enhanced cell cycle shift into G1 arrest”. The X-ray sensitivity result in assay [6] is “slightly decreased the sensitivity”.
